The structures appear in SMILES notation. Active and inactive are the calls of the source. The rule behind the calls is not given here.

The test system of this data set is GENE-TOX genotoxicity assays, various organisms and cells. In words: GENE-TOX mutagenicity studies.
The mark [1] stands for this setting: Species/Cell Type: Syrian hamster embryo (SA7/SHE) cells, Assay Type: Cell transformation, viral enhanced, Assay Code: CT7-, Evaluation Type: Evaluation A (Pre-1980).
The mark [2] stands for this setting: Species/Cell Type: Nonhuman, Assay Type: Sister-chromatid exchange (SCE) in vitro, Assay Code: SC2+, Evaluation Type: Evaluation B (Post-1980).
Where [3] appears, read: Species/Cell Type: Salmonella typhimurium (one or more of the five standard strains: TA98, TA100, TA1535, TA1537, and TA1538), Assay Type: Histidine reverse gene mutation, Ames assay, Assay Code: SAL+, Evaluation Type: Evaluation A (Pre-1980).
Where [4] appears, read: Species/Cell Type: Human diploid fibroblasts, Assay Type: Unscheduled DNA synthesis (UDS) in vitro, DNA effects, Assay Code: UDH-, Evaluation Type: Evaluation A (Pre-1980).
Setting [5] is: Species/Cell Type: Saccharomyces cerevisiae, Assay Type: Mitotic recombination or gene conversion, Assay Code: YEH-, Evaluation Type: Evaluation A (Pre-1980).
[6] abbreviates: Species/Cell Type: Salmonella typhimurium (one or more of the five standard strains: TA98, TA100, TA1535, TA1537, and TA1538), Assay Type: Histidine reverse gene mutation, Ames assay, Assay Code: SALT, Evaluation Type: Evaluation A (Pre-1980).
Setting [7] is: Species/Cell Type: Nonhuman, Assay Type: Sister-chromatid exchange (SCE) in vitro, Assay Code: SC2T, Evaluation Type: Evaluation B (Post-1980).
The mark [8] stands for this setting: Species/Cell Type: Drosophila melanogaster, Assay Type: Sex-linked recessive lethal gene mutation, Assay Code: SRL+, Evaluation Type: Evaluation A (Pre-1980).
Where [9] appears, read: Species/Cell Type: Salmonella typhimurium (one or more of the five standard strains: TA98, TA100, TA1535, TA1537, and TA1538), Assay Type: Histidine reverse gene mutation, Ames assay, Assay Code: SAL+*, Activation: With metabolic activation, Evaluation Type: Evaluation A (Pre-1980).

In the case of `CN(CCCC(=O)c1cccnc1)N=O`, where the note is “Species/Cell Type: Rat primary hepatocytes, Assay Type: Unscheduled DNA synthesis (UDS) in vitro, DNA effects, Assay Code: UDP+D, Dose Response: With dose response, Evaluation Type: Evaluation A (Pre-1980)”, the mutagenic call was “active; positive”.

As to `O=P(O)(O)O`, the mutagenic call under setting [1] is “inactive; negative”.

With `C/C=C/C1=CN2C(=O)c3cc(O[C@@H]4O[C@@H](C)[C@H](NC)[C@@](C)(O)[C@H]4O)c(C)c(O)c3N[C@H](O)[C@@H]2C1`, the mutagenic call (Species/Cell Type: Mammalian polychromatic erythrocytes, Assay Type: Micronucleus test, chromosome aberrations, Assay Code: MNT+U, Dose Response: Unconfirmed positive response, Evaluation Type: Evaluation B (Post-1980)) was “active; positive”.

On to `CC(=O)OC(OC(C)=O)c1ccc([N+](=O)[O-])o1`, for which the mutagenic call (Species/Cell Type: Escherichia coli WP2 UVRA, Assay Type: Tryptophan reverse gene mutation, Assay Code: WPU+, Evaluation Type: Evaluation A (Pre-1980)) was “active; positive”; the mutagenic call under setting [2] is “active; positive”; the mutagenic call under setting [3] is “active; positive”.

Turning to `COC1=C(N)C(=O)c2nc(-c3nc(C(=O)O)c(C)c(-c4ccc(OC)c(OC)c4O)c3N)ccc2C1=O`, the mutagenic call by setting is: (Species/Cell Type: Fischer rat embryo (RLV/1706) cells, Assay Type: Cell transformation, viral enhanced, Assay Code: CTR-, Evaluation Type: Evaluation A (Pre-1980)) “inactive; negative”; (Species/Cell Type: Human cell culture, Assay Type: Chromosome aberrations in vitro, Assay Code: CYZ+, Evaluation Type: Evaluation A (Pre-1980)) “active; positive”; (Species/Cell Type: Human diploid fibroblasts, Assay Type: Unscheduled DNA synthesis (UDS) in vitro, DNA effects, Assay Code: UDH+, Evaluation Type: Evaluation A (Pre-1980)) “active; positive”; (Species/Cell Type: Mammalian oocytes or early embryo, Assay Type: Chromosome aberrations in vivo, Assay Code: CYO+, Evaluation Type: Evaluation A (Pre-1980)) “active; positive”; (Species/Cell Type: Nonhuman, Assay Type: Sister-chromatid exchange (SCE) in vivo, Assay Code: SC3+, Evaluation Type: Evaluation A (Pre-1980)) “active; positive”; (Species/Cell Type: Vicia faba, Assay Type: Chromosome aberrations, Assay Code: VIC+, Evaluation Type: Evaluation A (Pre-1980)) “active; positive”.

In the case of `CCNc1nc(Cl)nc(NCC)n1`, the mutagenic call (Species/Cell Type: Drosophila melanogaster, Assay Type: Aneuploidy, partial sex chromosome loss, chromosome aberrations, Assay Code: DAPT, Evaluation Type: Evaluation A (Pre-1980)) was “no conclusion”; the mutagenic call (Species/Cell Type: Drosophila melanogaster, Assay Type: Aneuploidy, sex chromosome gain, chromosome aberrations, Assay Code: DAGT, Evaluation Type: Evaluation A (Pre-1980)) is given as “no conclusion”; the mutagenic call (Species/Cell Type: Drosophila melanogaster, Assay Type: Aneuploidy, whole sex chromosome loss, chromosome aberrations, Assay Code: DAC-M, Evaluation Type: Evaluation A (Pre-1980)) was “inactive; negative”; the mutagenic call under setting [4] was “inactive; negative”; the mutagenic call (Species/Cell Type: Saccharomyces cerevisiae, Assay Type: Mitotic recombination or gene conversion, Assay Code: YEC-, Evaluation Type: Evaluation A (Pre-1980)) was “inactive; negative”; the mutagenic call under setting [5] was “inactive; negative”. Moreover, the mutagenic call was “no conclusion” under setting [6] and “active; positive” (Species/Cell Type: Syrian hamster embryo (SA7/SHE) cells, Assay Type: Cell transformation, viral enhanced, Assay Code: CT7+, Evaluation Type: Evaluation A (Pre-1980)).

Turning to `COc1cc([N+](=O)[O-])c2ncccc2c1`, the mutagenic call under setting [3] was “active; positive”.

On to `c1ccc(-c2ccccc2)cc1`, for which the mutagenic call is “inactive; negative” under setting [4]; “active; positive” (Species/Cell Type: Nonhuman, Assay Type: Sister-chromatid exchange (SCE) in vitro, Assay Code: SC2+D, Dose Response: With dose response, Evaluation Type: Evaluation A (Pre-1980)); “inactive; negative” (Species/Cell Type: Rat primary hepatocytes, Assay Type: Unscheduled DNA synthesis (UDS) in vitro, DNA effects, Assay Code: UDP-, Evaluation Type: Evaluation A (Pre-1980)); “inactive; negative” under setting [5].

Turning to `CCCCSP(=O)(SCCCC)SCCCC`, the mutagenic call (Species/Cell Type: Nonhuman, Assay Type: Sister-chromatid exchange (SCE) in vitro, Assay Code: SC2-, Evaluation Type: Evaluation B (Post-1980)) was “inactive; negative”.

With `O=c1ccc2cc3ccoc3cc2o1`, the mutagenic call (Species/Cell Type: Mammalian cell culture, nonhuman, Assay Type: Micronucleus test in vitro, chromosome aberrations, Assay Code: MN&+, Evaluation Type: Evaluation A (Pre-1980)) was “active; positive” and the mutagenic call (Species/Cell Type: Saccharomyces cerevisiae, Assay Type: Reverse gene mutation, Assay Code: YERT, Evaluation Type: Evaluation A (Pre-1980)) was “no conclusion”.

On to `CCCCN(N=O)C(CCC)OC(C)=O` (stereo not drawn), for which the mutagenic call under setting [3] was “active; positive”.

For `FC(F)OC(Cl)C(F)(F)F` (stereo not drawn), the mutagenic call is “inactive; negative” (Species/Cell Type: Mouse, Sex: Male, Assay Type: Sperm morphology, Assay Code: SPI-, Evaluation Type: Evaluation A (Pre-1980)); “no conclusion” under setting [7]; “no conclusion” under setting [6].

`CC1C(=O)OC2CC[N+]3([O-])CC=C(COC(=O)C(C)(O)C1(C)O)C23` (stereo not drawn): the mutagenic call under setting [8] is “active; positive”.

For `CCCCCC(=O)c1c(O)cc2c(c1O)C(=O)c1c(O)cc(O)cc1C2=O`, the mutagenic call under setting [6] is reported as “no conclusion”.

In the case of `BrCC(Br)CBr`, the mutagenic call under setting [3] was “active; positive”.

In the case of `Cc1ccc(S(=O)(=O)NC(=O)NN2CCCCCC2)cc1`, the mutagenic call (Species/Cell Type: Nonhuman, Assay Type: Sister-chromatid exchange (SCE) in vivo, Assay Code: SC3T, Evaluation Type: Evaluation B (Post-1980)) is given as “no conclusion”.

For `COc1cc2c3cc1Oc1cc(ccc1O)C[C@@H]1c4c(cc(OC)c(O)c4Oc4ccc(cc4)C[C@@H]3N(C)CC2)CC[N+]1(C)C`, the mutagenic call (Species/Cell Type: Escherichia coli polA (W3119 vs P3478), Assay Type: Rec-assay, DNA effects (bacterial DNA repair), Assay Code: RE1T, Evaluation Type: Evaluation A (Pre-1980)) was “no conclusion” and the mutagenic call under setting [6] is “no conclusion”.

For `CCOP(=O)(OCC)Oc1nc(Cl)c(Cl)cc1Cl`, the mutagenic call is “no conclusion” under setting [7] and “inactive; negative” (Species/Cell Type: Nonhuman, Assay Type: Sister-chromatid exchange (SCE) in vivo, Assay Code: SC3-, Evaluation Type: Evaluation B (Post-1980)).

For the molecule `O=C(N[C@@H](CO)[C@@H](O)c1ccc([N+](=O)[O-])cc1)C(Cl)Cl`, under setting [3], the mutagenic call is “active; positive”.

Consider `CN(Cc1ccccc1)N=O`, for which the mutagenic call was “active; positive” (Species/Cell Type: Arabidopsis species, Assay Type: Gene mutation, Assay Code: ARM+D, Dose Response: With dose response, Evaluation Type: Evaluation A (Pre-1980)); “active; positive” under setting [8]; “active; positive” under setting [2]; “active; positive” under setting [9]; “active; positive” (Species/Cell Type: Salmonella typhimurium, Assay Type: Forward and reverse gene mutation, host-mediated assay, Assay Code: HMA+, Evaluation Type: Evaluation A (Pre-1980)).

For the molecule `[Cl-].[Cl-].[Cl-].[Ru+3]`, for the setting “Species/Cell Type: Bacillus subtilis (H17 vs M45), Assay Type: Rec-assay, spot test, DNA effects (bacterial DNA repair), Assay Code: REW-, Evaluation Type: Evaluation A (Pre-1980)”, the mutagenic call is “inactive; negative”.

For `CCOc1ccccc1C(N)=O`, the mutagenic call (Species/Cell Type: Human, Assay Type: Sister-chromatid exchange (SCE) in vitro, Assay Code: SC1+, Evaluation Type: Evaluation B (Post-1980)) is “active; positive”.

With `Nc1ccc2ccc3ccccc3c2n1`, the mutagenic call under setting [9] is “active; positive”.

Turning to `Nc1nc(-c2cc([N+](=O)[O-])c[nH]2)cs1`, under setting [6], the mutagenic call is listed as “no conclusion”.

Consider `CN(N=O)C(=O)Oc1ccccc1Cl`, for which the mutagenic call is, setting by setting: (Species/Cell Type: Bacillus subtilis (H17 vs M45T), Assay Type: Rec-assay, spot test, DNA effects (bacterial DNA repair), Assay Code: REX+, Evaluation Type: Evaluation A (Pre-1980)) “active; positive”; (Species/Cell Type: Escherichia coli WP2, Assay Type: Tryptophan reverse gene mutation, Assay Code: WP2+, Evaluation Type: Evaluation A (Pre-1980)) “active; positive”.

In the case of `C1CCCCC1`, the mutagenic call is, setting by setting: (Species/Cell Type: Salmonella typhimurium (one or more of the five standard strains: TA98, TA100, TA1535, TA1537, and TA1538), Assay Type: Histidine reverse gene mutation, Ames assay, Assay Code: SAL-, Evaluation Type: Evaluation A (Pre-1980)) “inactive; negative”; under setting [1], “inactive; negative”.

`CCC(C)I` (stereo not drawn): the mutagenic call (Species/Cell Type: Escherichia coli polA (W3119 vs P3478), Assay Type: Rec-assay, DNA effects (bacterial DNA repair), Assay Code: RE1+, Evaluation Type: Evaluation A (Pre-1980)) was “active; positive”.

As to `COc1ccc(Cn2ccnc2/C=C/c2ccc([N+](=O)[O-])o2)cc1`, the mutagenic call (Species/Cell Type: Neurospora crassa, Assay Type: Reverse gene mutation, Assay Code: NER+, Evaluation Type: Evaluation A (Pre-1980)) was “active; positive”.

Take `CC(=O)NO`: the mutagenic call (Species/Cell Type: Human lymphocytes or leukocytes, Assay Type: Chromosome aberrations in vitro, Assay Code: CY7-, Evaluation Type: Evaluation A (Pre-1980)) was “inactive; negative”.

Turning to `NC[C@@H]1OC(O[C@H]2[C@@H](O)[C@H](O[C@@H]3[C@@H](O)[C@H](N)C[C@H](N)[C@H]3O[C@H]3O[C@H](CN)[C@@H](O)[C@H](O)[C@H]3N)O[C@@H]2CO)[C@H](N)[C@@H](O)[C@@H]1O` (stereo partly drawn), the mutagenic call (Species/Cell Type: Rat, Sex: Male, Assay Type: Sperm morphology, Assay Code: SPA+, Evaluation Type: Evaluation A (Pre-1980)) is “active; positive”.
